The values below come from PMC3306394 (PLoS ONE, 2012).

Molecules are shown by their SMILES. Where two headings read alike, the source gives them in different places.

Experiment [1] concerns the target T1, wild-type HpSK (Helicobacter pylori shikimate kinase) (Helicobacter pylori, UniProt P56073).
T1 construct: His6 (own knowledge: the pQE30 vector gives an N-terminal MRGS-His6 tag); made in house; host or cells: E. coli (printed for the mutants; same procedures as for wild type)
The conditions noted are these: wild-type enzyme, cited from earlier work.

The target in experiment [2] is T2, HpSK F48Y (Helicobacter pylori, UniProt P56073, F48Y).
T2 construct: His6 (own knowledge: pQE30 vector gives an N-terminal MRGS-His6 tag); made in house; host or cells: E. coli
In kind it is biochemical. The method, then:
(§1) SK activity was determined by coupling the release of ADP from the SK-catalyzed reaction to the oxidation of NADH using pyruvate kinase (EC 2.7.1.40) and lactate dehydrogenase (EC 1.1.1.27) as coupling enzymes. Shikimate-dependent oxidation of NADH was monitored by a decrease in A340 (ε = 6,200 M^−1 cm^−1). […] All assays were conducted in a 96-well microplate and analyzed with a spectrophotometer (FLUOstar OPTIMA, BMG LABTECH). The relative activity of wild-type HpSK was set to 100%.

Experiment [3] deals with T3, HpSK E114A (Helicobacter pylori, UniProt P56073, E114A).
T3 construct: His6 (own knowledge: pQE30 vector gives an N-terminal MRGS-His6 tag); made in house; host or cells: E. coli
In kind it is biochemical. The method, then: as §1

Experiment [4] has as its target T4, HpSK M10A (Helicobacter pylori, UniProt P56073, M10A).
T4 construct: His6 (own knowledge: pQE30 vector gives an N-terminal MRGS-His6 tag); made in house; host or cells: E. coli
In kind it is biochemical. The conditions noted are these: apparent value. On the procedure: SK activity was determined by coupling the release of ADP from the SK-catalyzed reaction to the oxidation of NADH using pyruvate kinase (EC 2.7.1.40) and lactate dehydrogenase (EC 1.1.1.27) as coupling enzymes. […] All assays were conducted in a 96-well microplate and analyzed with a spectrophotometer (FLUOstar OPTIMA, BMG LABTECH). The relative activity of wild-type HpSK was set to 100%.

In experiment [5] the target is T3, HpSK E114A. Put plainly: Isothermal titration calorimetry, E114A. In kind it is binding. The settings on record: ITC, 25°C, ND = not detectable. On the procedure: (§2) Titration experiments were performed by ITC using an iTC200 or VP-ITC instrument (MicroCal, Piscataway, NJ, USA), and a 0.2-ml (iTC200) or 1.4-ml (VP-ITC) sample cell containing the macromolecule solution. All proteins were prepared in a buffer containing 20 mM potassium phosphate, pH 7.3. Prior to the experiment, samples were filtered and degassed under vacuum for 10 min in a Thermo Vac system (Microcal). The sample cell was filled with sample protein solution (15 µM) or the working buffer. Procedures of iTC200 titrations with a ligand (450 µM) were as follows: an initial 1-µl injection (not included in data analysis) followed by 19 injections of 2 µl each, with 2-min intervals between injections. Similar procedures for VP-ITC titrations were also performed: an initial 2-µl injection followed by 24 injections of 10 µl each, with 3-min intervals between injections. The experiments were performed with a constant stirrer speed of 1000 rpm (iTC200) or 290 rpm (VP-ITC) at 25°C. The binding isotherms were fitted to a one-site binding model to obtain the thermodynamic parameters with the initial point discarded. Data analysis was conducted using Origin 7 software.

In another experiment the target is T5, HpSK F48A (Helicobacter pylori, UniProt P56073, F48A).
T5 construct: His6 (own knowledge: pQE30 vector gives an N-terminal MRGS-His6 tag); made in house; host or cells: E. coli
Put plainly: Isothermal titration calorimetry, F48A. In kind it is binding. The conditions noted are these: ITC, 25°C, ND = not detectable. On the procedure:
as §2

Experiment [6] addresses T4, HpSK M10A. Put plainly: Isothermal titration calorimetry, M10A. In kind it is binding. The settings on record: ITC, 25°C, ND = not detectable. The method, then:
as §2
On the technique in general: Isothermal titration calorimetry measures the heat released or taken up as one component is titrated into another.

The target in experiment [7] is T2, HpSK F48Y. As to the kind of experiment: Isothermal titration calorimetry, F48Y. In kind it is binding. The conditions noted are these: ITC, 25°C, ND = not detectable. The method, then: as §2
In a further experiment the target is T6, HpSK R116K (Helicobacter pylori, UniProt P56073, R116K).
T6 construct: His6 (own knowledge: pQE30 vector gives an N-terminal MRGS-His6 tag); made in house; host or cells: E. coli
Put plainly: Isothermal titration calorimetry, R116K. In kind it is binding. The conditions noted are these: ITC, 25°C, ND = not detectable. On the procedure: as §2

A further experiment has as its target T7, HpSK R57K (Helicobacter pylori, UniProt P56073, R57K).
T7 construct: His6 (own knowledge: pQE30 vector gives an N-terminal MRGS-His6 tag); made in house; host or cells: E. coli
As to the kind of experiment: Isothermal titration calorimetry, R57K. In kind it is binding. The settings on record: ITC, 25°C, ND = not detectable. The method, then: as §2

The next experiment addresses T8, HpSK R116A (Helicobacter pylori, UniProt P56073, R116A).
T8 construct: His6 (own knowledge: pQE30 vector gives an N-terminal MRGS-His6 tag); made in house; host or cells: E. coli
Put plainly: Isothermal titration calorimetry, R116A. In kind it is binding. The conditions noted are these: ITC, 25°C, ND = not detectable. On the procedure: as §2

Another experiment addresses T9, HpSK R132K (Helicobacter pylori, UniProt P56073, R132K).
T9 construct: His6 (own knowledge: pQE30 vector gives an N-terminal MRGS-His6 tag); made in house; host or cells: E. coli
As to the kind of experiment: Isothermal titration calorimetry, R132K. In kind it is binding. The conditions noted are these: ITC, 25°C, ND = not detectable. On the procedure:
as §2

Another experiment has as its target T10, HpSK D33E (Helicobacter pylori, UniProt P56073, D33E).
T10 construct: His6 (own knowledge: pQE30 vector gives an N-terminal MRGS-His6 tag); made in house; host or cells: E. coli
As to the kind of experiment: Isothermal titration calorimetry, D33E. The conditions noted are these: ITC, 25°C, ND = not detectable. In kind it is binding. The method, then:
as §2

The next experiment concerns the target T11, HpSK R132A (Helicobacter pylori, UniProt P56073, R132A).
T11 construct: His6 (own knowledge: pQE30 vector gives an N-terminal MRGS-His6 tag); made in house; host or cells: E. coli
As to the kind of experiment: Isothermal titration calorimetry, R132A. In kind it is binding. The conditions noted are these: ITC, 25°C, ND = not detectable. The method, then: as §2

A further experiment concerns the target T12, HpSK D33A (Helicobacter pylori, UniProt P56073, D33A).
T12 construct: His6 (own knowledge: pQE30 vector gives an N-terminal MRGS-His6 tag); made in house; host or cells: E. coli
As to the kind of experiment: Isothermal titration calorimetry, D33A. The conditions noted are these: ITC, 25°C, ND = not detectable. In kind it is binding. The method, then: as §2

The target of another experiment is T13, HpSK R57A (Helicobacter pylori, UniProt P56073, R57A).
T13 construct: His6 (own knowledge: pQE30 vector gives an N-terminal MRGS-His6 tag); made in house; host or cells: E. coli
Put plainly: Isothermal titration calorimetry, R57A. In kind it is binding. The settings on record: ITC, 25°C, ND = not detectable. The method, then:
as §2

The next experiment has as its target T14, wild-type HpSK (Helicobacter pylori, UniProt P56073).
T14 construct: His6 (own knowledge: the pQE30 vector gives an N-terminal MRGS-His6 tag); made in house; host or cells: E. coli (printed for the mutants; same procedures as for wild type)
As to the kind of experiment: Isothermal titration calorimetry, wild-type HpSK. In kind it is binding. The method, then:
as §2

[8] abbreviates: apparent value, read-out: Km (MgATP).
Setting [9] is: read-out: Km (shikimate), apparent value.

T3 sequence (P56073 whole entry E114A): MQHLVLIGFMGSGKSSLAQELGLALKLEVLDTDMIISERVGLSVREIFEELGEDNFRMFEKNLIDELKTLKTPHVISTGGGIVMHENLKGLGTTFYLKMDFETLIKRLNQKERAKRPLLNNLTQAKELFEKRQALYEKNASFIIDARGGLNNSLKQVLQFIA
T1 sequence (P56073 whole entry): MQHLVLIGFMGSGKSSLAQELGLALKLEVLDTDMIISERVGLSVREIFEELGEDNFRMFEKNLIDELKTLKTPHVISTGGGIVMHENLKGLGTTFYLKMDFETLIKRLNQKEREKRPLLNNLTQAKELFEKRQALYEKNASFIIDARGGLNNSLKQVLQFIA
T2 sequence (P56073 whole entry F48Y): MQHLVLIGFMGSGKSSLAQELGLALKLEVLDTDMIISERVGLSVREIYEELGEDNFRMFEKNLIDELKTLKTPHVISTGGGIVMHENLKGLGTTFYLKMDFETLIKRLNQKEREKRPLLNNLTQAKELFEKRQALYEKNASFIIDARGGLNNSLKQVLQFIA
T4 sequence (P56073 whole entry M10A): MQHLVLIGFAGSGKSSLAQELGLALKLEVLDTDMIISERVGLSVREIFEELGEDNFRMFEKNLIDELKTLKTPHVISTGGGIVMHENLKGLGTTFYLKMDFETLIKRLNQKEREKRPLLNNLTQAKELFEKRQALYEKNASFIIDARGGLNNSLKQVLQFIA
T7 sequence (P56073 whole entry R57K): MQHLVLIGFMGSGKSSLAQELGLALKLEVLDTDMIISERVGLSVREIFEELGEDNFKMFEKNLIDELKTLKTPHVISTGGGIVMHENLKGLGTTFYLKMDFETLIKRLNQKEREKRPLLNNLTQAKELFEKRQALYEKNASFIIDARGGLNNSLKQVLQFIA
T12 sequence (P56073 whole entry D33A): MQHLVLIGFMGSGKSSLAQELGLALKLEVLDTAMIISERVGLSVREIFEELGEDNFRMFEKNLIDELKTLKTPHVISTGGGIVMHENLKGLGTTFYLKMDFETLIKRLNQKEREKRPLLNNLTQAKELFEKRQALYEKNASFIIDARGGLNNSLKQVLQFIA
T8 sequence (P56073 whole entry R116A): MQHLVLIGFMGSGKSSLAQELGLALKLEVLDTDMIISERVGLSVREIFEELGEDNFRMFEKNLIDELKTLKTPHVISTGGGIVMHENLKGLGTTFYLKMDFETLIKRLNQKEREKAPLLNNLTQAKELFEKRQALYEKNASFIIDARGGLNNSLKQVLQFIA
T5 sequence (P56073 whole entry F48A): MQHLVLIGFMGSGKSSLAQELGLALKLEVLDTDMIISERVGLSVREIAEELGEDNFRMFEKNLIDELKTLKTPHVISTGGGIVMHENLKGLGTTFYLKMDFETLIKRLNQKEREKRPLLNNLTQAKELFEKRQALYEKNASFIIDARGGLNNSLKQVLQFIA
T9 sequence (P56073 whole entry R132K): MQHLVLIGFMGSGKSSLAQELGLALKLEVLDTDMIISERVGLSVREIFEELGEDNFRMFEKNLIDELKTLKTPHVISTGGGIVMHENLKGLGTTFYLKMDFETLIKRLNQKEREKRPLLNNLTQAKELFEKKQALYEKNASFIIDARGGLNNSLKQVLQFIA
T11 sequence (P56073 whole entry R132A): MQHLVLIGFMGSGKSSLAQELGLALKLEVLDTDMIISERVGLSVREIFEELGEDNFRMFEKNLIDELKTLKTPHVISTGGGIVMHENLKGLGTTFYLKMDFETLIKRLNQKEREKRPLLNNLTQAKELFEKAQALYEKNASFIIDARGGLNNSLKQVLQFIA
T13 sequence (P56073 whole entry R57A): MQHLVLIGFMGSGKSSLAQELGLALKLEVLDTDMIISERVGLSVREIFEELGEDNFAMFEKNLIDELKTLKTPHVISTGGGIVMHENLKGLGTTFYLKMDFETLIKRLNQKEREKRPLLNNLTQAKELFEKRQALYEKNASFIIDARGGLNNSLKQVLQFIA
T14 sequence (P56073 whole entry): as the sequence (P56073 whole entry) above
T10 sequence (P56073 whole entry D33E): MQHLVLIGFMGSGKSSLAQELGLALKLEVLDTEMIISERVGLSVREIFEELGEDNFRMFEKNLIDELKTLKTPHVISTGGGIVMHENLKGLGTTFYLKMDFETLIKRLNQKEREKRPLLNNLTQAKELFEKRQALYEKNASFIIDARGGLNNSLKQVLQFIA
T6 sequence (P56073 whole entry R116K): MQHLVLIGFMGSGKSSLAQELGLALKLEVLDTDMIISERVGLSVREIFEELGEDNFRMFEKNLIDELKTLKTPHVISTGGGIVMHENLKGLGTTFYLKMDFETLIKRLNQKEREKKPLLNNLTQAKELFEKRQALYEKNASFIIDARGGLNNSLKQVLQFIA

The term Km denotes the concentration of substrate that gives half-maximal velocity. With `Nc1ncnc2c1ncn2[C@@H]1O[C@H](COP(=O)(O)OP(=O)(O)OP(=O)(O)O)[C@@H](O)[C@H]1O` [ATP], the “V max(MgATP)” value in [1] is 26 ± 1 µmol/min/mg; on HpSK F48Y [2] (apparent value) it was 17 ± 1 µmol/min/mg; on HpSK E114A [3] (apparent value), 26 ± 2 µmol/min/mg; at HpSK M10A [4] it was 26 ± 1 µmol/min/mg. In addition, the Km is 101 µM in [1] (read-out: Km (MgATP)), 231 µM on HpSK F48Y [2] (setting [8]), 143 µM on HpSK E114A [3] (setting [8]) and 293 µM at HpSK M10A [4] (read-out: Km (MgATP)).

Usually Kd stands for the free concentration of one partner at which half of the binding sites on the other are occupied at equilibrium, for simple one-to-one binding. A high value points to a looser complex. For `O=C(O)C1=C[C@@H](O)[C@@H](O)[C@H](O)C1` [shikimate, shikimic acid], the Kd is 330 ± 30 nM at HpSK E114A [5]; “lost binding activity” on HpSK F48A; 34000 ± 7000 nM at HpSK M10A [6]; 5200 ± 400 nM at HpSK F48Y [7]; “no heat release” on HpSK R116K; “no heat release” at HpSK R57K. The Kd result at HpSK R116A, on HpSK R132K, on HpSK D33E, at HpSK R132A, at HpSK D33A and on HpSK R57A was “no heat release” each time. This molecule also came in with a Kd on wild-type HpSK of 320 ± 70 nM. Also, the Km in experiment [1] (read-out: Km (shikimate)) is 60 µM; on HpSK F48Y [2] (setting [9]) it was 291 µM; at HpSK E114A [3] (setting [9]), 39 µM. Moreover, the “V max(shikimate)” value in [1] was 22 ± 1 µmol/min/mg; at HpSK F48Y [2] (apparent value) it was 13 ± 2 µmol/min/mg; on HpSK E114A [3] (apparent value), 23 ± 1 µmol/min/mg; on HpSK M10A [4], 16 ± 1 µmol/min/mg.
